# From US20240299347A1, “METHODS AND COMPOSITIONS TO TREAT HUNTINGTON'S DISEASE BY TARGETING ALOX5- MEDIATED FERROPTOSIS” (The Trustees of Columbia University in the City of New York, priority 2023, published 2024)
# Tests used:
# [1] = tested on: HTTQ94 Tet-on HT-22 cells; assay: Cell death assay, HTTQ94 Tet-on HT-22 cells treated with glutamate; assay type: cell-based, mouse; conditions: doxycycline 0.5 μg/ml and glutamate 10 mM, 20 h; for effect of inhibitor on HTTQ94-mediated ferroptosis upon glutamate induction: Ferr-1 2 μM, Zileuton 10 μM
# Method: (G) Cell death assay in HTTQ94 Tet-on HT-22 cells. Cells were transfected with control siRNA (ctrl) or ALOX5 siRNA, followed by incubation with doxycycline (0.5 μg/ml) and glutamate (10 mM) for 16 h in the presence or absence of Ferr-1 (2 μM). Cell death were calculated from three replicates; Data shown in (A), (C), (E) and (G) are means±SD. P-values were derived from two-tailed unpaired t-test.
# (E) Cell death assay. The HTTQ94 Tet-on HT-22 cells were treated with doxycycline (0.5 μg/ml) and glutamate (10 mM) in the presence or absence of Ferr-1(2 μM) or Zileuton (10 μM) for 20 h. […] Data shown in (B), (C), (D) and (E) are are means±SD. P-values were derived from two-tailed unpaired t-test.
# Cells were plated at 20˜30% density one day prior to siRNAs transfection.
# Cells were treated with ferroptosis inducer TBH or erastin or glutamate combined with other drugs or conditions. At indicated time points, cells were trypsinized and stained with trypan blue followed by counting with a hemocytometer using the cell number counter (Life technologies countess II). Living cells and dead cells were all counted, and cells stained blue were considered as dead cells.
# [2] = tested on: mHTT-mediated ferroptosis; assay: mHTT-mediated ferroptosis (summary statement); assay type: cell-based; conditions: general statement
# [3] = tested on: HTTQ94 Tet-on HT-22 cells; assay: Cell death assay, HTTQ94 Tet-on HT-22 cells under ROS stress (TBH); assay type: cell-based, mouse; conditions: for effect of inhibitor on HTTQ94-mediated cell death upon ROS stress: then TBH 10 μM 8 h, Ferr-1 2 μM, Lipro-1 2 μM, DFO 100 μM, zVAD 10 μM, 3 MA 2 mM, Nec1 10 μM, Zileuton 10 μM, MK886 10 μM
# Method: (A) Representative phase-contrast images of cell death from the HTTQ94 tet-on HT-22 cells. HTTQ94 Tet-on HT-22 cells were pre-incubated with doxycycline (0.5 μg/ml) for 4 h, and then treated with TBH (10 μM) for 8 h in the presence or absence of the ferroptosis inhibitors (ferrostatin-1, Ferr1, 2 μM; liproxstatin-1, Lipor1, 2 μM and DFO, 100 μM), apoptosis inhibitor (Z-VADFMK, zVAD, 10 μM), autophagy inhibitor (3-methylademine, 3 MA, 2 mM) or necroptosis inhibitor (necrostatin-1, Nec1, 10 μM). (B) Quantification of cell death, related to panel A. Three replicates for each group. […] Cell death were calculated from three replicates; Data shown in (B), (C), and (E) are means±SD. P-values were derived from two-tailed unpaired t-test. (***) P≤0.001, (**) P≤0.01, (*) P≤0.05, (n.s.) P >0.05.
# [4] = tested on: HT-22 HTTQ94 inducible cells; assay: TfR1 immunofluorescence staining of ferroptotic cells; assay type: cell-based, mouse; conditions: doxycycline 1 μg/ml O/N
# Method: FIGS. 13A-D. TfR1 staining is able to specifically recognize ferroptotic cells induced by HTTQ94 expression. (A) Limb clasping analysis in HD and HD/Alox5null mice (9-, 11- and 13-week-old). p<0.01, n=7. (B-D), TfR1 staining in HT-22 HTTQ94 inducible cells upon TBH treatment. HT-22 HTTQ94 inducible cells were treated 1 μg/ml doxycycline O/N to induce HTTQ94 expression, followed by treatment with 30 μM TBH for 6 h, and then cells were stained with TfR1 antibody. (B) Representative images of TfR1 staining. (C) Quantification of TfR1 staining. (D) Cell death assay, related to panel B. Data shown in (A) are means±SD. Data shown in (C) and (D) are means±SEM. P-values were derived from two-tailed unpaired t-test. (***) P<0.001, (**) P≤0.01, (*) P<0.05, (n.s.) P >0.05.
# For cell line: HT-22 HTTQ94 inducible cells were fixed with 2% paraformaldehyde at RT for 20 min, and then incubated with blocking buffer (10% donkey serum, 0.3% Triton X-100 in PBS), followed by incubation with TfR1 antibody (1: 250, Thermo Fisher Scientific, Cat #13-6800) for 1 h, and then incubation with Alexa 568 conjugated secondary antibody (1:250, Thermo Fisher Scientific, Cat #A11004) for additional 1 h.
# [5] = tested on: cellular models of Huntington's disease (HD); conditions: Skouta et al. 2014; cited from earlier work
# [6] = tested on: HTTQ94 Tet-on HT-22 cells; assay: Cell death assay, HTTQ94 Tet-on HT-22 cells treated with erastin; assay type: cell-based, mouse; conditions: doxycycline 0.5 μg/ml 4 h, then Erastin 1 μM 12 h; Ferr-1 2 μM, ROSI 10 μM, TRO 10 μM
# Method: (B) HTTQ94 Tet-on HT-22 cells were pre-incubated with doxycycline (0.5 μg/ml) for 4 h, and then treated with Erastin (1 μM) for 12 h with/without Ferr-1 (2 μM). […] (E) Cell death assay. Control, HTTQ94 and HTTQ19 fragment Tet-on H1299 cells pre-incubated with doxycycline (0.5 μg/ml) for 16 h were treated with Erastin (30 μM) for 48 h with/without Ferr-1 (2 μM). Cell death were calculated from three replicates; Data shown in (B) and (E) are the means±SD. P-values were derived from two-tailed unpaired t-test. (***) P≤0.001, (**) P≤0.01, (*) P≤0.05, (n.s.) P >0.05.
# (A) Cell death assay. HTTQ94 Tet-on HT-22 cells pre-incubated with doxycycline (0.5 μg/ml) for 4 h were treated with Erastin (1 μM) for 12 h in the presence or absence of ferrostatin-1 (Ferr-1, 2 μM) or ACSL4 inhibitors (rosiglitazone, ROSI, 10 μM; troglitazone, TRO, 10 μM). (B) Cell death assay. […] Cell death were calculated from three replicates. […]
# Cells were treated with ferroptosis inducer TBH or erastin or glutamate combined with other drugs or conditions. […] Living cells and dead cells were all counted, and cells stained blue were considered as dead cells. Quantification of cell death was further confirmed using ToxiLight Non-destructive Cytotoxicity BioAssay Kit (LT07-117; Lonza). Data were collected using GloMax® Explorer Multimode Microplate Reader (Promega).
smiles,measurement,setting,value
"CC(c1cc2ccccc2s1)N(O)C(N)=O (racemic) [Zileuton, (±)-1 (1-Benzo[b]thien-2-ylethyl)-1-hydroxyurea]",effect of inhibitor on HTTQ94-mediated ferroptosis upon glutamate induction,[1],completely blocked
same,block of mHTT-mediated ferroptosis,[2],effectively blocked
CC(=O)N(O)CCCCCNC(=O)CCC(=O)N(O)CCCCCNC(=O)CCC(=O)N(O)CCCCCN [DFO],effect of inhibitor on HTTQ94-mediated cell death upon ROS stress,[3]; doxycycline 0.5 μg/ml 4 h,specifically blocked
"Clc1cccc(CN=C2Nc3ccccc3NC23CCNCC3)c1 [Lipro-1, liproxstatin-1]",effect of inhibitor on HTTQ94-mediated cell death upon ROS stress,[3]; doxycycline 0.5 μg/ml 4 h,specifically blocked
"CC(C)(C)OO [TBH, tert-butyl hydroperoxide]",cell death induced by inducer alone,"[3]; TBH 10 μM 8 h, no HTTQ94 induction",failed to induce any cell death
same,cell death induced by inducer combined with HTTQ94 expression,"[3]; doxycycline 0.5 μg/ml 4 h, TBH 10 μM 8 h",high levels of cell death
same,levels of anti-TfR1 antibody staining cells with inducer upon HTTQ94 induction,[4]; TBH 30 μM 6 h,dramatically increased
CCOC(=O)c1ccc(NC2CCCCC2)c(N)c1 [ferrostatin-1],effect of inhibitor on HTTQ94-mediated ferroptosis upon glutamate induction,[1],inhibited
same,effect of inhibitor on HTTQ94-mediated cell death upon ROS stress,[3]; doxycycline 0.5 μg/ml 4 h,specifically blocked
same,effect of inhibitor on levels of anti-TfR1 antibody staining,"[4]; then TBH 30 μM 6 h, with Ferr-1",abolished
same,rescue of cell death,[5],significantly rescued
same,effect of inhibitor on HTTQ94-mediated cell death (ferroptosis) upon erastin,[6],completely inhibited
N[C@@H](CCC(=O)O)C(=O)O [glutamate],cell death induced by inducer upon HTTQ94 expression,[1],high levels of cell death
